# Measured values from patent US20260285850A1, “SUBSTITUTED OXAZOLIDINONES AND IMIDAZOLINONES AS HERBICIDES” (FMC CORPORATION, priority 2023, published 2026).
# Key:
# Format in all cases: in vivo
# [1] = tested on: ryegrass, Italian (italian ryegrass, Lolium multiflorum); experiment: Test A preemergence soil spray, visual injury rating 0-100; settings: 10 days, 0 = no effect, 100 = complete control
# In short: (§1)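 Rating: visual, day 10, untreated plants as reference, 0 no effect to 100 full control. Plants were in loam-sand and were treated either preemergence via directed soil spray or postemergence at the one- to two-leaf stage.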
# corn (Zea mays) [2] = experiment: as above; settings: 10 days, 0 = no effect, 100 = complete control
# In short: as §1
# [3] = tested on: wheat (Triticum aestivum); experiment: as above; settings: 10 days, 0 = no effect, 100 = complete control
# In short: as §1
# [4] = tested on: barnyardgrass (Echinochloa crus-galli); experiment: as above; settings: 10 days, 0 = no effect, 100 = complete control
# In short: as §1
# [5] = tested on: green foxtail (Setaria viridis); experiment: as above; settings: 10 days, 0 = no effect, 100 = complete control
# In short: as §1
# [6] = tested on: blackgrass (Alopecurus myosuroides); experiment: as above; settings: 10 days, 0 = no effect, 100 = complete control
# In short: as §1
# soybean (Glycine max) [7] = experiment: as above; settings: 10 days, 0 = no effect, 100 = complete control
# In short: as §1
# [8] = tested on: oat, wild (wild oat, Avena fatua); experiment: as above; settings: 10 days, 0 = no effect, 100 = complete control
# In short: as §1
# [9] = tested on: palmer (palmer amaranth, palmer pigweed, Amaranthus palmeri); experiment: as above; settings: 10 days, 0 = no effect, 100 = complete control
# In short: as §1
# [10] = tested on: ragweed (common ragweed, Ambrosia artemisiifolia); experiment: as above; settings: 10 days, 0 = no effect, 100 = complete control
# In short: as §1
# kochia (Bassia scoparia) [11] = experiment: as above; settings: 10 days, 0 = no effect, 100 = complete control
# In short: as §1
# [12] = tested on: barnyardgrass (Echinochloa crusgalli); experiment: Test B flooded paddy test, visual plant response rating 0-100; settings: 250 g ai/ha, Flood, applied to paddy water, evaluated after 13 days
# In short: (§2)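 Visual evaluation after 13 days. Water-applied treatment, 3 cm flood depth held constant, plants at 2-leaf stage at treatment.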
# [13] = tested on: ducksalad (Heteranthera limosa); experiment: as above; settings: 250 g ai/ha, Flood, applied to paddy water, evaluated after 13 days
# In short: as §2
# rice (Oryza sativa) = experiment: as above; settings: 250 g ai/ha, Flood, applied to paddy water, evaluated after 13 days
# In short: as §2
# [14] = tested on: sedge, umbrella (small-flower umbrella sedge, Cyperus difformis); experiment: as above; settings: 250 g ai/ha, Flood, applied to paddy water, evaluated after 13 days
# In short: as §2
# [15] = tested on: ryegrass, Italian (italian ryegrass, Lolium multiflorum); experiment: Test A postemergence application, visual injury rating 0-100; settings: Postemergence
# In short: as §1
# corn (Zea mays) [16] = experiment: as above; settings: Postemergence
# In short: as §1
# [17] = tested on: wheat (Triticum aestivum); experiment: as above; settings: Postemergence
# In short: as §1
# [18] = tested on: horseweed (Erigeron canadensis); experiment: as above; settings: Postemergence
# In short: as §1
# [19] = tested on: barnyardgrass (Echinochloa crus-galli); experiment: as above; settings: Postemergence
# In short: as §1
# [20] = tested on: galium (catchweed bedstraw, Galium aparine); experiment: as above; settings: Postemergence
# In short: as §1
# [21] = tested on: green foxtail (Setaria viridis); experiment: as above; settings: Postemergence
# In short: as §1
# [22] = tested on: blackgrass (Alopecurus myosuroides); experiment: as above; settings: Postemergence
# In short: as §1
# soybean (Glycine max) [23] = experiment: as above; settings: Postemergence
# In short: as §1
# [24] = tested on: oat, wild (wild oat, Avena fatua); experiment: as above; settings: Postemergence
# In short: as §1
# [25] = tested on: palmer (palmer amaranth, palmer pigweed, Amaranthus palmeri); experiment: as above; settings: Postemergence
# In short: as §1
# [26] = tested on: ragweed (common ragweed, Ambrosia artemisiifolia); experiment: as above; settings: Postemergence
# In short: as §1
# kochia (Bassia scoparia) [27] = experiment: as above; settings: Postemergence
# In short: as §1
# [28] = 31 g ai/ha, greenhouse 10 days, 0 no effect, 100 complete control
# [29] = 125 g ai/ha, 10 days, 0 is no effect, 100 is complete control
smiles,measurement,setting,value
CC(C)COC(=O)C1C=CC(NC(=O)C2(C)CN(c3cc(Cl)cc(Cl)c3)C(=O)O2)C1 (stereo not shown) [Compound 66],"Ryegrass, Italian plant response rating (0-100)",[1]; 31 g ai/ha,50
same,"Ryegrass, Italian plant response rating (0 to 100 scale)",[1]; 125 g ai/ha,90
same,Corn plant response rating (0-100),corn (Zea mays) [2]; 31 g ai/ha,0
same,Corn plant response rating (0 to 100 scale),corn (Zea mays) [2]; 125 g ai/ha,60
same,Wheat plant response rating (0-100),[3]; 31 g ai/ha,10
same,Wheat plant response rating (0 to 100 scale),[3]; 125 g ai/ha,70
same,Barnyardgrass plant response rating (0-100),[4]; 31 g ai/ha,50
same,Barnyardgrass plant response rating (0 to 100 scale),[4]; 125 g ai/ha,90
same,"Foxtail, Green plant response rating (0-100)",[5]; 31 g ai/ha,20
same,"Foxtail, Green plant response rating (0 to 100 scale)",[5]; 125 g ai/ha,100
same,Blackgrass plant response rating (0-100),[6]; 31 g ai/ha,30
same,Blackgrass plant response rating (0 to 100 scale),[6]; 125 g ai/ha,80
same,Soybean plant response rating (0-100),soybean (Glycine max) [7]; 31 g ai/ha,0
same,Soybean plant response rating (0 to 100 scale),soybean (Glycine max) [7]; 125 g ai/ha,0
same,"Oat, Wild plant response rating (0-100)",[8]; 31 g ai/ha,0
same,"Oat, Wild plant response rating (0 to 100 scale)",[8]; 125 g ai/ha,90
same,"Amaranth, Palmer plant response rating (0-100)",[9]; 31 g ai/ha,90
same,"Amaranth, Palmer plant response rating (0 to 100 scale)",[9]; 125 g ai/ha,100
same,Ragweed plant response rating (0-100),[10]; 31 g ai/ha,0
same,Ragweed plant response rating (0 to 100 scale),[10]; 125 g ai/ha,70
same,Kochia plant response rating (0-100),kochia (Bassia scoparia) [11]; 31 g ai/ha,0
same,Kochia plant response rating (0 to 100 scale),kochia (Bassia scoparia) [11]; 125 g ai/ha,30
same,"Plant response rating, Barnyardgrass (0 to 100 scale, 0 is no effect and 100 is complete control)",[12],75
same,"Plant response rating, Ducksalad (0 to 100 scale, 0 is no effect and 100 is complete control)",[13],95
same,"Plant response rating, Rice (0 to 100 scale, 0 is no effect and 100 is complete control)",rice (Oryza sativa),15
same,"Plant response rating, Sedge, Umbrella (0 to 100 scale, 0 is no effect and 100 is complete control)",[14],100
same,"Ryegrass, Italian plant response rating (0 to 100 scale)",[15]; [28],70
same,"Ryegrass, Italian plant response rating (0 to 100 scale)",[15]; [29],100
same,Corn plant response rating (0 to 100 scale),corn (Zea mays) [16]; [28],90
same,Corn plant response rating (0 to 100 scale),corn (Zea mays) [16]; [29],100
same,Wheat plant response rating (0 to 100 scale),[17]; [28],90
same,Wheat plant response rating (0 to 100 scale),[17]; [29],90
same,Horseweed plant response rating (0 to 100 scale),[18]; [28],40
same,Horseweed plant response rating (0 to 100 scale),[18]; [29],70
same,Barnyardgrass plant response rating (0 to 100 scale),[19]; [28],100
same,Barnyardgrass plant response rating (0 to 100 scale),[19]; [29],100
same,Galium plant response rating (0 to 100 scale),[20]; [28],70
same,Galium plant response rating (0 to 100 scale),[20]; [29],80
same,"Foxtail, Green plant response rating (0 to 100 scale)",[21]; [28],70
same,"Foxtail, Green plant response rating (0 to 100 scale)",[21]; [29],90
same,Blackgrass plant response rating (0 to 100 scale),[22]; [28],90
same,Blackgrass plant response rating (0 to 100 scale),[22]; [29],90
same,Soybean plant response rating (0 to 100 scale),soybean (Glycine max) [23]; [28],80
same,Soybean plant response rating (0 to 100 scale),soybean (Glycine max) [23]; [29],80
same,"Oat, Wild plant response rating (0 to 100 scale)",[24]; [28],90
same,"Oat, Wild plant response rating (0 to 100 scale)",[24]; [29],90
same,"Amaranth, Palmer / Pigweed, Palmer plant response rating (0 to 100 scale)",[25]; [28],90
same,"Amaranth, Palmer / Pigweed, Palmer plant response rating (0 to 100 scale)",[25]; [29],90
same,Ragweed plant response rating (0 to 100 scale),[26]; [28],70
same,Ragweed plant response rating (0 to 100 scale),[26]; [29],80
same,Kochia plant response rating (0 to 100 scale),kochia (Bassia scoparia) [27]; [28],70
same,Kochia plant response rating (0 to 100 scale),kochia (Bassia scoparia) [27]; [29],80
